Data set [1] can be described thus: Water proton r1 relaxivity measurement. Type of data set: physicochemical. The settings on record: 1 T. As for the experimental part: Water proton r1 relaxivities of probe 15 and 1-ctrl (19) before and after caspase-3 incubation were then measured at 1, 1.5 and 3 T. For comparison, the isolated cyclized products 2-I and 2-II were also measured.
A series of solutions containing contrast agents with five different concentrations (0.05-0.5 mM) in Caspase buffer (pH 7.4) were treated with or without Casp-3 (50 nM) at 37° C. overnight. The solutions were placed in PCR tubes, bundled together, and MR-imaged at 1 T (Bruker Icon, Bruker BioSpin Corp.), […], 1.5 and 3 T (Signa HDx, GE Healthcare) at room temperature.
The scanning procedure began with a localizer and then consisted of a series of inversion-prepared fast spin echo scans, identical in all aspects (TR 8000 ms (6000 ms for Bruker Icon), TE minimum, field of view 6 cm, slice thickness 2 mm, matrix 128×128, NEX 1) except for the inversion time (TI) that was varied as: 4000, 2400, 1200, 800, 600, 400, 300, 200, 100, and 50 ms. For quantitative data analysis, the acquired MR images were transferred as DICOM images to an offline workstation, and signal intensities were extracted from each of the 5 samples at each of the 10 TI times by manual region of interest (ROI) placement and voxel averaging within the ROI.
Signal intensity versus TI relationships were fit to the following exponential T1 recovery model by non-linear least squares regression: SI (TI)=S0[1−2*exp(−TI/T1)+exp(−TR/T1)]. Relaxation rates (R1) were determined as 1/T1. Longitudinal relaxivities (r1, units of mM^−1s^−1) were calculated as the slope of R1 vs [Gd] after the determination of true Gd concentration of each sample by the ICP-MS measurement.

The subject of data set [2] is viable HeLa cells. Briefly: Cell viability study (trypan blue). It is filed as cell-based, human. Conditions: 250 μM for 24 h. How it is done: About 2×10^5 HeLa cells in 1 mL DMEM medium were seeded onto 12-well plates. […] After 24 h incubation, the medium was removed, and the cells were trypsinized. The cell number was counted using trypan blue assay. The viability of cell with blank medium was set as 100%, and cells incubating with 1 or Dotarem were normalized to that in blank medium.

Numbered stars: 1 amine (or outer) side, 2 acyl side, 3 side chain; on linkers, the order of the positions; unused ones are H or OH. Square brackets hold non-standard residues; d marks the D form. Peptide text beside a SMILES is read from it. * marks the point of attachment. DOTA = O=C(O)CN1CCN(CC(=O)O)CCN(CC(=O)*)CCN(CC(=O)O)CC1; X1 = O=C(C1CSC(c2nc3ccc(N[*:1])cc3s2)=N1)[*:2]; X2 = N#Cc1ccc2cc(OCCCN*)ccc2n1; SEt = CCS*

`CCSSCC(NC(=O)C(CC(=O)O)NC(=O)C(NC(=O)C(CCC(=O)O)NC(=O)C(CC(=O)O)NC(C)=O)C(C)C)C(=O)NC(CCCCNC(=O)CN1CCN(CC(=O)[O-])CCN(CC(=O)[O-])CCN(CC(=O)[O-])CC1)C(=O)Nc1ccc2nc(C3=NC(C(=O)NCCCOc4ccc5nc(C#N)ccc5c4)CS3)sc2c1.[Gd+3]` (stereo not shown) [probe 15] (Ac-DEVDC(SEt)K(DOTA)[X1]-X2; configuration not given here): in data set [1], the “r1 after activation higher than Dotarem” value was “about 510%”, the “r1 after activation higher than before activation” value is listed as “about 106%”, the “r1 relaxivity upon caspase-3 activation” value is on record as “approximately 29.3 mM^−1 s^−1” and the “r1 relaxivity without caspase-3 activation” value worked out at 14.2 mM⁻¹ s⁻¹. In data set [1] (listed as Gd-based MRI probe), the “r1 after activation higher than before activation” value was 106% and the “r1 relaxivity upon caspase-3 activation” value was 29.3 mM⁻¹ s⁻¹. The “cytotoxicity, effect on cell viability” value in data set [2] is on record as “no adverse effects on cell viability”.
